# Reference: US20050187179A1, “Apoptosis inducing agents and methods” (The Government of the United States of America as …, priority 1998, published 2005)
# Legend:
# [1] = tested on: HL-60 human promyelocytic leukemia cells; set-up: key: +: Compound induces terminal differentiation of the transformed cells; conditions: terminal differentiation; cited from earlier work
# [2] = tested on: HT-29 human colon cancer cells; set-up: key: +: Compound induces terminal differentiation of the transformed cells; conditions: terminal differentiation; cited from earlier work
# [3] = tested on: MEL murine erythroleukemia cells; set-up: key: +: Compound induces terminal differentiation of the transformed cells; conditions: terminal differentiation; cited from earlier work
# [4] = tested on: Transformed cells; conditions: Table 2, hybrid polar compounds; cited from earlier work
# [5] = tested on: MEL cells; conditions: cited from earlier work; for HG cells, % (% of cells hemoglobinized): Table 3, at optimal concentration; for Opt. [ ], μM (Optimal concentration): Table 3
# [6] = tested on: MEL cells; assay: HMBA-induced MEL cell differentiation, benzidine staining for hemoglobin; format: cell-based, mouse; conditions: 5 mM HMBA, at 120 hours
# Procedure: Murine erythroleukemia Friend cells (MEL), were maintained in RPMI supplemented with 10% (v/v) heat inactivated fetal bovine serum (HyClone) and 10^−5 M β-mercaptoethanol (β-ME). To induce differentiation, logarithmically growing cells were plated at 1×10^5 cells/ml in medium containing 5 mM HMBA for 120 hours. Cells were passaged to initial density at 72 hours. Cells were assayed for the presence of hemoglobin (Orkin et al., Proc. Natl. Acad. Sci. USA 1975, 72:98-102) by the addition of 1/10 volume of freshly prepared benzidine reagent (0.4% benzidine base, 2% hydrogen peroxide in 12% acetic acid). Benzidine positive cells were counted in modified Neubauer hemocytometers. Each sample was counted by two independent operators, blinded to the cell treatment, and readings were averaged.
# The accumulation of differentiated cells, as determined by benzidine staining, was analyzed during the 120 hours of culture with HMBA (FIG. 8C). There was a steady increase in differentiated cells from 48 hours onwards, that generally reached 35-45%, at 120 hours. […] Cultures were not continued beyond 120 hours, because at this time Notch-1 was reproducibly undetectable.
# [7] = patients; cited from earlier work
# [8] = tested on: Notch-1; assay: Notch-1 mRNA and protein expression in MEL cells with HMBA (RT-PCR, western blot); format: cell-based, mouse; conditions: 5 mM HMBA, 4 to 120 hours
# Procedure: Total RNA was extracted from cells using Trizol reagent (Life Technologies). RT-PCR was performed using the Thermostable Reverse Transcriptase RNA PCR kit (Perkin Elmer) according to manufacturer's instructions. Reactions were amplified in a Perkin Elmer 2400 DNA thermal cycler for 40 cycles of denaturation at 94° C. for 1 minute, annealing and extension at 65° C. for 2 minutes. Amplification of mouse primers specific for Notch-1, SEQ ID NO 1, and SEQ ID NO 2, generated a product of 431 bp. Primers specific for GAPDH: sense 5′ TCACCACCATGGAGAAGG 3′ (SEQ ID NO 3) and antisense 5′ […] 3′ (SEQ ID NO 4) generated a 200 bp product. Negative and positive PCR controls were included in every experiment.
# To determine whether Notch-1 expression is regulated during HMBA-induced MEL cell differentiation, Notch-1 mRNA levels were analyzed in MEL cells set up at equal density and maintained in culture for 4, 8, 24 or 120 hours in the absence or presence of HMBA.
# Notch-1 steady state protein levels were determined by western blot using the polyclonal antibody to Notch-1 (see Example 2). […] Notch-1 steady state protein levels reflected the Notch-1 mRNA pattern of expression. In the presence of HMBA (H), Notch-1 protein was reproducibly evident in the early stages of induction, but gradually disappeared becoming essentially undetectable at 120 hours. […] In uninduced MEL cells (C). […]
# [9] = tested on: SY5Y cells; assay: SY5Y cell survival with S-oligos and antineoplastic agent (CellTiter 96 AQueous assay); format: cell-based, human; conditions: 50 ng/ml agent, S-oligos 25-100 μM, 1 μM RA
# Procedure: SY5Y cells, a neuroblastoma cell line (Example 3) were split into 96 well plates and grown in RPMI 1640 with glutamine, 10% FCS and 1 μM RA. At approximately 60% confluence, the phosphorothioate oligonucleotides (S-oligos, antisense, sense and scrambled; see Example 10) at various concentrations (25, 50, 75 and 100 μM) were added. Subsequently, 50 ng/ml of vinblastine (Sigma, St. Louis Mo., V-1377) was added to half of the wells (based on preliminary dose ranging experiments). Cell survival was measured using Promega's CellTiter 96 AQueous assay, which measures viable cells in the well. Paclitaxel (Sigma, St. Louis Mo., T-1912), another member of the […], was also tested (at 50 ng/ml) using this same assay.
# [10] = tested on: thymocytes; assay: Apoptosis of thymocytes from Notch-1 antisense transgenic mice after dexamethasone; format: cell-based, mouse; conditions: thymocytes of Notch-1 antisense transgenic mice, pharmacologic dose
# From the text: A pMAMneo plasmid was used which contained the same insert that was used in the pcDNA 3.1 plasmid that was introduced into the MEL cells. This construct expresses the antisense under a MMTV LTR promoter, which has good basal activity and is stimulated by several steroid hormones, such as estradiol, glucocorticoids and androgens. The plasmid was linearized, purified, and microinjected into mouse embryos which were then implanted into surrogate mothers. Pups were screened for the presence of the transgene by PCR on tail snippets. This was done on two separate instances, which generated one positive founder male and one positive founder female containing Notch-1 antisense in their genomes. The founder animals were separately bred into a C57bl6 background for several generations until homozygous positive mice were obtained which bred true (generated all positive litters).
# Pharmacological stimuli were used to induce apoptosis more readily in thymocyte cells from these mice.
# Thymocytes undergo differentiation in the thymus, and normally express Notch-1. Spontaneous apoptosis levels in thymocytes were not increased, but apoptosis and cell death levels were increased about 50% by a pharmacologic dose of dexamethasone, a steroid used for the treatment of T-cell leukemias which induces rapid terminal differentiation and death in thymocytes. […]
# [11] = tested on: Notch-1 protein; assay: Notch-1 protein expression in S-oligo treated MEL cells; format: cell-based, mouse; conditions: at 48 hours, three experiments
# Procedure: (§1) The late apoptotic fraction (sub-G1 peak) in cells treated with Lin-12 sense, antisense and scrambled S-oligos in the presence of HMBA was determined by flow cytometry (FIG. 11B). […] The Lin-12 antisense S-oligo, but not the sense or scrambled control, decreased expression of Notch-1 protein by 50-75% at 48 hours in three experiments. […] Actin expression was also unaffected by a transfected 1100 bp construct in a plasmid, as discussed below in Example 11.
# Cell pellets were solubilized in hot 2×SDS sample buffer containing 10% β-ME and analyzed by 4% SDS/PAGE. Proteins were electroblotted to Immobilon P (Millipore) in 10 mM CAPS with 10% methanol at 0.75 A for 5 hours. Notch-1 proteins were detected using a chemiluminescence Western blotting kit (Boehringer Mannheim) according to manufacturer's instructions. Relative band intensities were determined by the Kodak 1-D analysis software.
# [12] = tested on: actin; assay: Actin levels in S-oligo treated MEL cells; format: cell-based, mouse; conditions: sense, antisense and scrambled compared
# Procedure: as §1
# [13] = tested on: MEL cells; assay: Late apoptotic fraction (sub-G1 peak) and viability of S-oligo treated MEL cells, flow cytometry; format: cell-based, mouse
# Procedure: as §1
# Parental MEL or transfected clones were synchronized for cell cycle analysis experiments by density arrest (Ryan et al., Mol. Cell Biol. 1993, 13:711-719). At this point, cells were plated at 1×10^5 cells/ml in medium containing 5 mM HMBA. For the transfected clones, 700 μg/ml G418 was added to the medium. At 16 hours, cells were harvested, fixed in 1% paraformaldehyde for 15 minutes and then 70% ethanol overnight. Cells were resuspended, at constant cell density, in PI solution (50 μg/ml PI (propidum iodide), 0.1% Triton-X-100, 200 μg/ml RNAase A) for 1 hour at room temperature with mixing. […] The DNA content of cells was determined using a Becton Dickinson FACScan flow cytometer. Cells appearing as a sub-G1 peak were scored as apoptotic. In cell cycle analyses, apoptotic and dead cells were gated out and only the viable population was analyzed.
# [14] = tested on: 3T3-L1 cells; conditions: Garcés et al. 1997; cited from earlier work
compound,measurement,setting,value
CC(=O)NCCCCCCCCNCC=O,Transformed cells HL-60,[1],+
same,Transformed cells HT-29,[2],+
same,Transformed cells MEL,[3],+
same,"Opt. [ ], μM (Optimal concentration)",[4],"5,000 μM"
CNC(=O)CCCCCCCCC(=O)NC,Transformed cells HL-60,[1],+
same,Transformed cells HT-29,[2],+
same,Transformed cells MEL,[3],+
same,"Opt. [ ], μM (Optimal concentration)",[4],"5,000 μM"
O=C(CCCCCCCCC(=O)NO)NO,Transformed cells HL-60,[1],+
same,Transformed cells HT-29,[2],+
same,Transformed cells MEL,[3],+
same,"Opt. [ ], μM (Optimal concentration)",[4],10 to 60 µM
O=C(/C=C/c1ccc(C(=O)NO)cc1)NO,Transformed cells HL-60,[1],+
same,Transformed cells HT-29,[2],+
same,Transformed cells MEL,[3],+
same,"Opt. [ ], μM (Optimal concentration)",[4],10 to 60 µM
O=C(CCCCCNC(=O)Nc1cccc(Cl)c1)NO [3-Cl-UCHA],"HG cells, % (% of cells hemoglobinized)",[5],32%
same,"Opt. [ ], μM (Optimal concentration)",[5],4.0 µM
"O=C(/C=C/c1cccc(C(=O)NO)c1)NO [CBHA, m-carboxycinnamic acid bishydroxamide]","HG cells, % (% of cells hemoglobinized)",[5],73%
same,"Opt. [ ], μM (Optimal concentration)",[5],4.0 µM
"CC(=O)NCCCCCCNC(C)=O [HMBA, hexamethylene bisacetamide]",differentiated (benzidine-positive) cells,[6],35-45%
same,"HG cells, % (% of cells hemoglobinized)",[5],95%
same,"Opt. [ ], μM (Optimal concentration)",[5],"5,000 μM"
same,adverse effect of therapy,[7],can result in thrombocytopenia
same,effect on Notch-1 expression pattern,[8],causing an early increase in Notch-1 followed by a progressive decline
CC(=O)O[C@H]1C(=O)[C@@]2(C)[C@H]([C@H](OC(=O)c3ccccc3)[C@]3(O)C[C@H](OC(=O)[C@H](O)[C@@H](NC(=O)c4ccccc4)c4ccccc4)C(C)=C1C3(C)C)[C@]1(OC(C)=O)CO[C@@H]1C[C@@H]2O [Paclitaxel],"cell survival, antineoplastic agent combined with Notch-1 antisense S-oligos",[9],cell survival was decreased to a greater extent
"O=C(CCCCCCC(=O)Nc1ccccc1)NO [SAHA, Suberoylanilide hydroxamic acid]","HG cells, % (% of cells hemoglobinized)",[5],68%
same,"Opt. [ ], μM (Optimal concentration)",[5],2.5 µM
O=C(CCCCCCC(=O)NO)NO [SBHA],"HG cells, % (% of cells hemoglobinized)",[5],94%
same,"Opt. [ ], μM (Optimal concentration)",[5],30 µM
CC(/C=C/C(=O)NO)=C\[C@@H](C)C(=O)c1ccc(N(C)C)cc1 [TSA],"HG cells, % (% of cells hemoglobinized)",[5],80%
same,"Opt. [ ], μM (Optimal concentration)",[5],0.075 µM
C[C@@H]1C[C@H]2[C@@H]3CCC4=CC(=O)C=C[C@]4(C)[C@@]3(F)[C@@H](O)C[C@]2(C)[C@@]1(O)C(=O)CO [dexamethasone],increase of apoptosis and cell death levels,[10],about 50%
CC[C@]1(O)C[C@@H]2CN(CCc3c([nH]c4ccccc34)[C@@](C(=O)OC)(c3cc4c(cc3OC)N(C)[C@H]3[C@@](O)(C(=O)OC)[C@H](OC(C)=O)[C@]5(CC)C=CCN6CC[C@]43[C@@H]65)C2)C1 [vinblastine],"cell survival, antineoplastic agent combined with Notch-1 antisense S-oligos",[9],cell survival was decreased to a greater extent
"AGACTGCGTGCAGTTCTTCCAGG (all phosphorothioate, sugars by position and methylation of C not given here) [Lin-12 antisense S-oligo, phosphorothioate antisense oligo for the Lin/Notch region of Notch-1]",decrease of Notch-1 protein expression,[11],50-75%
same,actin levels,[12],No difference in actin levels
same,late apoptotic fraction (sub-G1 peak),"[13]; 25 μM S-oligo in the presence of HMBA, 120 hours",significantly larger effect than either sense (SEN) or scrambled (SCR) controls
same,"viability (cells within G1, G2/S or M regions)",[13]; S-oligo in the presence of HMBA,parallel decrease in viability
"rh11-12: human recombinant Notch-1 EGF-repeats 11 and 12, 6-Histidine tagged, expressed in E. coli",effect on differentiation of 3T3-L1 cells,[14],blocked their differentiation
